Article PMC10778758, “Dithioethanol (DTE)-Conjugated Deoxyribose Cyclic Dinucleotide Prodrugs (DTE-dCDNs) as STING Agonist” (International Journal of Molecular Sciences, 2023)
Several values for one entry are separate records, joined by “and”; a condition that tells them apart may be missing. Identical values can stand only once.

Key:
THP-1 cells [1] = assay: Western blot of STING/TBK1/IRF3 phosphorylation in THP-1 cells; assay type: cell-based; conditions: 4 h
Description: Western blotting. THP-1 cells (8 × 10^5 cells/well) were seeded into a 6-well plate and treated with prodrug 9, 2′,3′-cGAMP, 3′,3′-c-di-dAMP, and ADU-S100 for 4 h. The total proteins from the cells were extracted via cold RIPA buffer supplemented with protease inhibitors. Cell lysates were harvested via 1 × SDS-PAGE sample loading buffer (Cat. code: P0015, Beyotime, Shanghai, China), boiled at 100 °C for 10 min. Cell lysates were run on 10% SDS-PAGE gels and transferred onto NC membranes. The membranes were blocked with 5% BSA for 1 h and incubated with primary antibodies against STING, phospho-STING (Ser366), TBK1, phospho-TBK1 (Ser172), IRF3, phospho-IRF3 (Ser386), or β-actin overnight at 4 °C. Horseradish peroxidase-conjugated secondary antibodies were used as secondary antibodies. Finally, the membrane was detected using enhanced chemiluminescence for imaging.
Figure 9 Prodrug 9 activated the STING signalling pathway through stimulating the phosphorylation of STING, TBK1, and IRF3. Prodrug 9 (10 μM), 2′,3′-cGAMP (100 μM), 3′,3′-c-di-dAMP (100 μM), and ADU-S100 (10 μM) were used to treat THP-1 cells for 4 h, and the levels of total STING, phospho-STING, total TBK1, phospho-TBK1, total IRF3, phospho-IRF3, and β-actin were detected via Western blotting. The raw images of western blots were also placed in pages S16–S22 in Supplementary Materials.
Figure S4. Relative quantification of phospho-STING, phospho-TBK1, phospho-IRF3. Prodrug 9 (10
μM), 2′,3′-cGAMP (100 μM), 3′,3′-c-di-dAMP (100 μM) and ADU-S100 (10 μM) were used to treat
THP-1 cells for 4 h, and the levels of total STING, phospho-STING, total TBK1, phospho-TBK1, total
IRF3, phospho-IRF3, and β-actin were assessed by western blotting. […]

THP-1 cells [2] = conditions: human, 10 μM
Description: Uptake of DTE-dCDN Prodrug. THP-1 cells were seeded at a concentration of 5 × 10^6 cells/mL into a 12-well plate. After 16 h of incubation at 37 °C in a 5% CO2 atmosphere, the compounds were added to cell cultures and the cells were collected at time points of 1 h, 2 h, 4 h, 6 h, 8 h, 12 h, and 24 h by centrifugation for 1 min at 1000× g. The media was removed completely, and the cells were washed twice with 800 μL of ice-cold PBS before being lysed with 400 μL ice-cold 70% methanol. Lysates were incubated overnight at −20 °C and then centrifuged for 20 min at 13,000× g to remove cellular debris. The supernatant was analyzed via LC/MS/MS (Agilent 1290 Infinity II/6470A)
(a) The intracellular concentration of the prodrug 9 in THP-1 cells. (b) The intracellular concentration of the parent dCDN (3′,3′-c-di-dAMP) in THP-1 cells. THP-1 cells were treated with 10 μM prodrug 9 or 100 μM parent dCDN (3′,3′-c-di-dAMP) for the indicated period of time (1, 2, 4, 6, 8, 12, 24 h), and the intracellular concentration of the metabolites in cellular extracts was determined with liquid chromatograph MS/MS analysis.

THP-1 cells [3] = assay: RT-qPCR of cytokine mRNA levels in THP-1 cells; assay type: cell-based; conditions: 4 h
Description: Real-time quantitative PCR (RT-qPCR). The mRNA expression levels of diverse cytokines were measured using quantitative RT-PCR (RT-qPCR) assays. THP-1 cells or CT26 cells were incubated with the compounds for 4 h, subsequently harvested for RNA isolation according to the manufacturer’s instructions of RNApure Tissue&Cell Kit (DNase I) (CWBIO, Cambridge, MA, USA catalogue no. CW0560S). Next, 1 μg RNA was reversely transcribed to cDNA by TransScript All-in-One First-Strand cDNA Synthesis SuperMix for qPCR (One-Step gDNA Removal) (TransGen, Beijing, China). To examine the mRNA levels, real-time PCR was performed in a CFX96 Real-Time PCR system (Bio-RAD, Hercules, CA, USA) using PerfectStart Green qPCR Super Mix (TransGen) and primers (Sangon Biotech, Shanghai, China). The expression level was calculated according to the formula (2^−∆∆Ct) using the GAPDH or β-actin as the internal reference gene and the relative gene expression fold was normalized to the DMSO-treated cells. The THP-1 and CT26 cell lines were obtained from American Type Culture Collection (ATCC, Manassas, VA, USA).
Figure 7 Prodrug 9 improved the production of the type I interferons and proinflammatory cytokines in THP-1 cells. The mRNA expression levels of IFN-β (a), CXCL10 (b), IL-6 (c), and TNF-α (d) were assessed via real-time quantitative PCR (qPCR) under the treatment of prodrug 9 (10 μM), 3′,3′-c-di-dAMP (100 μM), 2′,3′-cGAMP (100 μM), and ADU-S100 (10 μM) for 4 h.

THP1-Lucia cells = assay: THP1-Lucia cell-based luciferase reporter assay
Description: THP1-Lucia cell-based reporter assay. THP1-Lucia cells were seeded into a 24-well plate at a density of 5 × 10^4 cells/well. […] Finally, the medium was collected to determine the luciferase activity using QUANTI-Luc (InvivoGen, San Diego, CA, USA) according to the manufacturer′s instruction to calculate the EC50 values of the tested compounds. The results are expressed as the mean ± SD from three independent experiments. Emax values were normalized to the response induced by 2′,3′-cGAMP in each assay and expressed as a mean percentage ± SD from three independent experiments. The THP1-Lucia cell line was obtained from Prof. Junmin Quan from Peking University (Beijing, China).
Figure 5 The luciferase-based assay in the THP1-Lucia reporter cell line. (a) EC50 values represent the mean (±SD) of three independent experiments. (b) Emax values represent the mean (±SD) of three independent experiments.

THP-1 cells [4] = assay: CCK8 cell viability, THP-1 cells; assay type: cell-based; conditions: 10 μM, 24 h
Description: Cell viability of THP-1 and HEK293T cells. A total of 5 × 10^3 HEK293T cells or THP-1 cells were seeded in 96-well plates. […] Cell counting kit-8 (CCK8) (US EVERBRIGHT, Newport Beach, CA, USA, c6005) was then used to quantitatively assess the cell viability through the OD value at 450 nm. The HEK293T cell line was obtained from American Type Culture Collection (ATCC).
Figure 8 Cell viability of THP-1 and HEK293T cells stimulated by prodrug 9 and 2′,3′-cGAMP. (a) A total of 5 × 10^3 THP-1 cells or (b) HEK293T cells were seeded in 96-well plates. Cells were stimulated with prodrug 9 (10 μM), 3′,3′-c-di-dAMP (100 μM), and 2′,3′-cGAMP (100 μM) for 24 h. Then, cell counting kit-8 (CCK8) (US EVERBRIGHT, c6005) was used to quantitatively assess cell viability through the OD value at 450 nm. Data are presented as mean ± SD, n = 3.

[5] = THP-1, prodrug 9 10 μM vs 2′,3′-cGAMP 100 μM
[6] = THP-1, prodrug 9 10 μM vs 3′,3′-c-di-dAMP 100 μM
[7] = THP-1, prodrug 9 10 μM vs ADU-S100 10 μM

time at which intracellular levels of prodrug 9 peaked (THP-1 cells [2]): 2 h
fold activity (EC50) vs 3′,3′-c-di-dAMP (THP1-Lucia cells): ~43 fold
fold activity (EC50) vs ADU-S100 (THP1-Lucia cells): ~3.0 fold and 3 fold
EC50 (THP1-Lucia cells; 24 h): 960 nM
Compound: Nc1ncnc2c1ncn2C1CC2OP(=O)(OCCSSc3ccccn3)OCC3OC(n4cnc5c(N)ncnc54)CC3OP(=O)(OCCSSc3ccccn3)OCC2O1 (centres unmarked) [prodrug 9]
relative expression of phospho-IRF3, fold compared to 2′,3′-cGAMP (THP-1 cells [1]; [5]): 19.8 fold
relative expression of phospho-STING, fold compared to 2′,3′-cGAMP (THP-1 cells [1]; [5]): 20.8 fold
relative expression of phospho-TBK1, fold compared to 2′,3′-cGAMP (THP-1 cells [1]; [5]): 6.9 fold
relative expression of phospho-IRF3, fold compared to 3′,3′-c-di-dAMP (THP-1 cells [1]; [6]): 6.5 fold
relative expression of phospho-STING, fold compared to 3′,3′-c-di-dAMP (THP-1 cells [1]; [6]): 5.5 fold
relative expression of phospho-TBK1, fold compared to 3′,3′-c-di-dAMP (THP-1 cells [1]; [6]): 3.6 fold
relative expression of phospho-IRF3, fold compared to ADU-S100 (THP-1 cells [1]; [7]): 1.8 fold
relative expression of phospho-STING, fold compared to ADU-S100 (THP-1 cells [1]; [7]): 1.6 fold
relative expression of phospho-TBK1, fold compared to ADU-S100 (THP-1 cells [1]; [7]): 1.3 fold
CXCL10 mRNA expression, fold compared to 2′,3′-cGAMP (THP-1 cells [3]; [5]): ~17 fold
IFN-β mRNA expression, fold compared to 2′,3′-cGAMP (THP-1 cells [3]; [5]): approximately 40 fold
IL-6 mRNA expression, fold compared to 2′,3′-cGAMP (THP-1 cells [3]; [5]): ~1.2 fold
TNF-α mRNA expression, fold compared to 2′,3′-cGAMP (THP-1 cells [3]; [5]): ~46 fold
CXCL10 mRNA expression, fold compared to 3′,3′-c-di-dAMP (THP-1 cells [3]; [6]): ~26 fold
IFN-β mRNA expression, fold compared to 3′,3′-c-di-dAMP (THP-1 cells [3]; [6]): approximately 43 fold
IL-6 mRNA expression, fold compared to 3′,3′-c-di-dAMP (THP-1 cells [3]; [6]): ~1.4 fold
TNF-α mRNA expression, fold compared to 3′,3′-c-di-dAMP (THP-1 cells [3]; [6]): ~12 fold
CXCL10 mRNA expression, fold higher than ADU-S100 (THP-1 cells [3]; [7]): 14 fold
IFN-β mRNA expression, fold higher than ADU-S100 (THP-1 cells [3]; [7]): 14 fold
IL-6 mRNA expression, fold higher than ADU-S100 (THP-1 cells [3]; [7]): 1.9 fold
TNF-α mRNA expression, fold higher than ADU-S100 (THP-1 cells [3]; [7]): 15 fold
maximum activation fold (Emax) relative to 2′,3′-cGAMP (THP1-Lucia cells): approximately 1.8 fold
maximum activation fold (Emax) relative to 3′,3′-c-di-dAMP (THP1-Lucia cells): ~1.9 fold
maximum activation fold (Emax) relative to ADU-S100 (THP1-Lucia cells): ~1.4 fold
cell viability (CCK8), THP-1 cells (THP-1 cells [4]): no significant influence on the growth
